Each block holds one molecule with its values, some of them ahead of it. The source made the active and inactive calls. The rule behind the calls is not given here.
Key:
[1] = system: BT-474; experiment: Growth inhibition of human BT474 cells overexpressing HER2 after 5 days; assay type: functional; conditions: BT-474, 120 h
[2] = biological target: T1, Receptor tyrosine-protein kinase erbB-2 (Homo sapiens, UniProt P04626); experiment: Inhibition of human N-terminal DYKDDDD-tagged HER2 cytoplasmic domain (676 to 1255) expressed in baculovirus expression system incubated for 5 mins prior to [gamma-32P]ATP addition measured after 10 mins by scintillation counting analysis
T1 sequence (P04626 whole entry, the tested form may be a part): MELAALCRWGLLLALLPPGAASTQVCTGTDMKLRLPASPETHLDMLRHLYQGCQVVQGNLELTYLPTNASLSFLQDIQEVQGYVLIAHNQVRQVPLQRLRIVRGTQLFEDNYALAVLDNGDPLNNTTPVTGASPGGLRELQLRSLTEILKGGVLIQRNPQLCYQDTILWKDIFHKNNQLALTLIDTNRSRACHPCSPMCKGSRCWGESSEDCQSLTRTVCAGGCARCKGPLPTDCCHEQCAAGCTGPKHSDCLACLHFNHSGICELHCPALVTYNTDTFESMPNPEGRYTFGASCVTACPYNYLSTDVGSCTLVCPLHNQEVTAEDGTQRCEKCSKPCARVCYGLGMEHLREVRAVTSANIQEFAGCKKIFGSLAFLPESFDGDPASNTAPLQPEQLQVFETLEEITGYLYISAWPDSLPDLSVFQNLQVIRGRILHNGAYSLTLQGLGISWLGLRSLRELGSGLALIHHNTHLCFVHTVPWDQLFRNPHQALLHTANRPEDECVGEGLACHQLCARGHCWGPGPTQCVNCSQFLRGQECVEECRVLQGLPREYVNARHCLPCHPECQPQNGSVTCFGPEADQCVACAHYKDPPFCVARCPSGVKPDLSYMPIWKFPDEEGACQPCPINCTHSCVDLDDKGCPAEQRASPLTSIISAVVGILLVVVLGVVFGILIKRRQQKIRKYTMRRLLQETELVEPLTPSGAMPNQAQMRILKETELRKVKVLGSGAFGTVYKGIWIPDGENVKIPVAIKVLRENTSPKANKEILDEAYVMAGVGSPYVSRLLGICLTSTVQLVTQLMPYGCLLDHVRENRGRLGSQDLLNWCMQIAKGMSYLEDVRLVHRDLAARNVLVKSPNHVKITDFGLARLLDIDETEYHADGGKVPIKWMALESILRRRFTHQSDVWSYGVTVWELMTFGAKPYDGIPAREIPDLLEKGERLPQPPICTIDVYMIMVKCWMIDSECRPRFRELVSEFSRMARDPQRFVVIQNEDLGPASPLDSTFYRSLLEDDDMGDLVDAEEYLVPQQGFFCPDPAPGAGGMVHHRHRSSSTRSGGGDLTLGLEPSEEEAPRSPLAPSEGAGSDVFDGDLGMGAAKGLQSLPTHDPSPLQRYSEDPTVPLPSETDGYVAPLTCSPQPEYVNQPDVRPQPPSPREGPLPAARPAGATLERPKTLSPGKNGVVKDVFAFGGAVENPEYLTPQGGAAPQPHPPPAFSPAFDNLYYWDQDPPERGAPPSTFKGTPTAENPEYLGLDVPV

[3] = biological target: Epidermal growth factor receptor (Homo sapiens, UniProt P00533); experiment: Inhibition of human N-terminal DYKDDDD-tagged EGFR cytoplasmic domain (669 to 1210) expressed in baculovirus expression system incubated for 5 mins prior to [gamma-32P]ATP addition measured after 10 mins by scintillation counting analysis
Chain of Epidermal growth factor receptor (P00533 whole entry, the tested form may be a part): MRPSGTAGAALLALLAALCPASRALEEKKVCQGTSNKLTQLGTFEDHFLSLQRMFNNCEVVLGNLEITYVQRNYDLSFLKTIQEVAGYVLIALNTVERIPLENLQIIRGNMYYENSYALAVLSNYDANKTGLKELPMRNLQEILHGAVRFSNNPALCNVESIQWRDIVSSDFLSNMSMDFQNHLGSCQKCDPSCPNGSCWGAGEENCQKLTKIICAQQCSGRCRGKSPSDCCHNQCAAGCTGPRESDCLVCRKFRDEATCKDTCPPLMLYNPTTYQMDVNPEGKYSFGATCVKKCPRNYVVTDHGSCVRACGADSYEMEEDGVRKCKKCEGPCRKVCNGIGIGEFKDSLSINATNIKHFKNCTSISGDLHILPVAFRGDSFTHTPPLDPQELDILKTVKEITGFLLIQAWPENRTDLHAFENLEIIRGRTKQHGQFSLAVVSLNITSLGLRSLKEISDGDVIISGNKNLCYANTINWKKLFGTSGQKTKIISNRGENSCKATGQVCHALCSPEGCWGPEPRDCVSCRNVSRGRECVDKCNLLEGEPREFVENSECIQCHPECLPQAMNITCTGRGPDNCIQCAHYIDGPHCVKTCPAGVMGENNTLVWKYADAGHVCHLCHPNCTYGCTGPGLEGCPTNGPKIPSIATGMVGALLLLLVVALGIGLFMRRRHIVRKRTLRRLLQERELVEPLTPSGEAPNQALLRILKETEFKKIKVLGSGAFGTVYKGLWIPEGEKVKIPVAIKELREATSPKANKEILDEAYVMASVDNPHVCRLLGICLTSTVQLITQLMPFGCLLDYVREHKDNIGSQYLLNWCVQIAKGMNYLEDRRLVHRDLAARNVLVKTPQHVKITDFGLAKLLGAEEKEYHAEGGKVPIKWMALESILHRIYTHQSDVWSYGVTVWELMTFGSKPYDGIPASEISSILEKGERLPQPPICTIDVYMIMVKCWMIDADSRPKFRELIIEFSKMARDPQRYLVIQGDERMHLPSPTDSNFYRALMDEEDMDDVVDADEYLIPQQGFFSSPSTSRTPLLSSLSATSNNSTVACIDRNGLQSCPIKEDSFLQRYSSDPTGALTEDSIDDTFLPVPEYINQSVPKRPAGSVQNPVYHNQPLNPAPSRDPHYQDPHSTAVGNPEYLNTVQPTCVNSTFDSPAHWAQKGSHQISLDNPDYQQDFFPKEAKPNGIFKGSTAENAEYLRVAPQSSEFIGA

[4] = biological target: Tyrosine-protein kinase Lck (Homo sapiens, UniProt P06239); experiment: Inhibition of LCK (unknown origin) incubated for 5 mins prior to ATP addition measured after 30 mins by Alphascreen assay
[5] = biological target: Mast/stem cell growth factor receptor Kit (Homo sapiens, UniProt P10721); experiment: Inhibition of c-kit (unknown origin) incubated for 5 mins prior to ATP addition measured after 20 mins by Alphascreen assay
Chain of Mast/stem cell growth factor receptor Kit (P10721 whole entry): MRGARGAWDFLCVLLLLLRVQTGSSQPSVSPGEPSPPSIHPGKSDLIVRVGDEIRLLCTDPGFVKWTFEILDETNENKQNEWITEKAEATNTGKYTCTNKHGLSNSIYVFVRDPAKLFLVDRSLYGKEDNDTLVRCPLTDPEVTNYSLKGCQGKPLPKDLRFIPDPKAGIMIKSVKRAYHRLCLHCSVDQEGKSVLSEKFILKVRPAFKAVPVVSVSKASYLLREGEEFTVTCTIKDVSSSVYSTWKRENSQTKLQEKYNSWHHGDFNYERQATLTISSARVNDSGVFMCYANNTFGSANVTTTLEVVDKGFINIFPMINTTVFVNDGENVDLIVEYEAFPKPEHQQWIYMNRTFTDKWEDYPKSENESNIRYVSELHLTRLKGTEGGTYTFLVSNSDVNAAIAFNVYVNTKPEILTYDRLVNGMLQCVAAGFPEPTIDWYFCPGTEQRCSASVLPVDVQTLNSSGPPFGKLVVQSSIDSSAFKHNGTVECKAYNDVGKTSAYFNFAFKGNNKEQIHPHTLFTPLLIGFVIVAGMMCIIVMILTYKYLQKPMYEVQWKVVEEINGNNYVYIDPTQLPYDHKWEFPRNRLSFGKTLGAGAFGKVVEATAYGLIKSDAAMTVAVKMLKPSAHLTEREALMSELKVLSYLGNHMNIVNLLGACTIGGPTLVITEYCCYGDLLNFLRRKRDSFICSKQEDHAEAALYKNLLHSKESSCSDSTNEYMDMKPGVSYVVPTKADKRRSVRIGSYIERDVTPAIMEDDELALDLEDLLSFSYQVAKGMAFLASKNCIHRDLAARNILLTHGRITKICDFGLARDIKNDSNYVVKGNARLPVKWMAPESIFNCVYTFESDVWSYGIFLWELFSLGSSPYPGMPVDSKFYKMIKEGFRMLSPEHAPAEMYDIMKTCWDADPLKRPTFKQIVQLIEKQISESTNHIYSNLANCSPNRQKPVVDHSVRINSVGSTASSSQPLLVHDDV

[6] = biological target: Tyrosine-protein kinase ZAP-70 (Homo sapiens, UniProt P43403); experiment: Inhibition of ZAP70 (unknown origin) incubated for 5 mins prior to ATP addition measured after 10 mins by Alphascreen assay
Chain of Tyrosine-protein kinase ZAP-70 (P43403 whole entry): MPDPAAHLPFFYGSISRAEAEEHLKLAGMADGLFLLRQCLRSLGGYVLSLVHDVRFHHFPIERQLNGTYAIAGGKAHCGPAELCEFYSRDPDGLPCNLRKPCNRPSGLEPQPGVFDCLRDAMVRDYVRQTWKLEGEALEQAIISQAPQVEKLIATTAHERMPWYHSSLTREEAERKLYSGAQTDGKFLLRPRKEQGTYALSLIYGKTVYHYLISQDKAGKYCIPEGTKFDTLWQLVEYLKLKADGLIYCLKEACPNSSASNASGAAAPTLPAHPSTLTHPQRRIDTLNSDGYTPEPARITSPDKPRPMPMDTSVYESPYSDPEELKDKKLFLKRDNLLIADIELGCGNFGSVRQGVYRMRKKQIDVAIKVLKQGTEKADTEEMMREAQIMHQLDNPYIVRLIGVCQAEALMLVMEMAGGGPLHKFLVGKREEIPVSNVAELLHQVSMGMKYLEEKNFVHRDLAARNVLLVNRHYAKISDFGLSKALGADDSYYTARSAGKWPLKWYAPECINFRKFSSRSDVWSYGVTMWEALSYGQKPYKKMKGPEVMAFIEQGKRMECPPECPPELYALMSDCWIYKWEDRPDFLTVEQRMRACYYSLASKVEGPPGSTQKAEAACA

[7] = biological target: Fibroblast growth factor receptor 1 (Homo sapiens, UniProt P11362); experiment: Inhibition of FGFR1 (unknown origin) incubated for 5 mins prior to ATP addition measured after 10 mins by Alphascreen assay
[8] = biological target: Protein kinase C theta type (Homo sapiens, UniProt Q04759); experiment: Inhibition of N-terminal FLAG-tagged PKCtheta (unknown origin) expressed in baculovirus expression system incubated for 5 mins prior to [gamma-33P]ATP addition measured after 60 mins by scintillation counting analysis
[9] = biological target: Cytoplasmic tyrosine-protein kinase BMX (Homo sapiens, UniProt P51813); experiment: Inhibition of N-terminal FLAG-tagged full length BMX (unknown origin) expressed in baculovirus expression system incubated for 5 mins prior to ATP addition measured after 10 mins by Alphascreen assay
[10] = biological target: Dual specificity mitogen-activated protein kinase kinase 5 (Homo sapiens, UniProt Q13163); experiment: Inhibition of N-terminal FLAG-tagged MEK5 (unknown origin) expressed in baculovirus expression system incubated for 5 mins prior to [gamma-33P]ATP addition measured after 30 mins by scintillation counting analysis
Chain of Dual specificity mitogen-activated protein kinase kinase 5 (Q13163 whole entry): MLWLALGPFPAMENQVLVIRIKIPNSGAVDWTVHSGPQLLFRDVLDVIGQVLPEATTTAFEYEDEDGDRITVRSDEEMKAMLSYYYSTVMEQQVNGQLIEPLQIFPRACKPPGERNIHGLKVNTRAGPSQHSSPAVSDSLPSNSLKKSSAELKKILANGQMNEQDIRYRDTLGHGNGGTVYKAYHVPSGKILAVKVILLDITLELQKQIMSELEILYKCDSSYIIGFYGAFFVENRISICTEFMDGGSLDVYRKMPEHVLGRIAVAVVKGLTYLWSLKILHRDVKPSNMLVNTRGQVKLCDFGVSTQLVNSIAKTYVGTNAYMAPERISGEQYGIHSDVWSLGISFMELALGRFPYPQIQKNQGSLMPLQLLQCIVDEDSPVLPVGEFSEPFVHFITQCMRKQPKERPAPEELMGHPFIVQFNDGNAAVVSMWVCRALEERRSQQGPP

[11] = biological target: Platelet-derived growth factor receptor alpha (Homo sapiens, UniProt P16234); experiment: Inhibition of PDGFRalpha (unknown origin) incubated for 5 mins prior to ATP addition measured after 30 mins by Alphascreen assay
[12] = biological target: Mitogen-activated protein kinase 14 (Homo sapiens, UniProt Q16539); experiment: Inhibition of N-terminal FLAG-tagged p38alpha (unknown origin) expressed in baculovirus expression system incubated for 5 mins prior to [gamma-33P]ATP addition measured after 60 mins by scintillation counting analysis
[13] = biological target: Vascular endothelial growth factor receptor 1 (Homo sapiens, UniProt P17948); experiment: Inhibition of VEGFR1 (unknown origin) incubated for 5 mins prior to ATP addition measured after 5 mins by Alphascreen assay
[14] = biological target: Hepatocyte growth factor receptor (Homo sapiens, UniProt P08581); experiment: Inhibition of c-MET (unknown origin) incubated for 5 mins prior to ATP addition measured after 10 mins by Alphascreen assay
[15] = biological target: Vascular endothelial growth factor receptor 2 (Homo sapiens, UniProt P35968); experiment: Inhibition of N-terminal FLAG-tagged VEGFR2 cytoplasmic domain (unknown origin) incubated for 5 mins prior to ATP addition measured after 10 mins by Alphascreen assay
[16] = biological target: Mitogen-activated protein kinase 3 (Homo sapiens, UniProt P27361); experiment: Inhibition of N-terminal FLAG-tagged ERK1 (unknown origin) expressed in baculovirus expression system incubated for 5 mins prior to [gamma-33P]ATP addition measured after 60 mins by scintillation counting analysis
[17] = biological target: Mitogen-activated protein kinase kinase kinase 1 (Homo sapiens, UniProt Q13233); experiment: Inhibition of C-terminal FLAG-tagged MEKK (unknown origin) expressed in baculovirus expression system incubated for 5 mins prior to [gamma-33P]ATP addition measured after 60 mins by scintillation counting analysis
[18] = biological target: T2, Tyrosine-protein kinase Lyn (Homo sapiens, UniProt P07948); experiment: Inhibition of LYNB (unknown origin) incubated for 5 mins prior to ATP addition measured after 10 mins by Alphascreen assay
T2 sequence (P07948 whole entry): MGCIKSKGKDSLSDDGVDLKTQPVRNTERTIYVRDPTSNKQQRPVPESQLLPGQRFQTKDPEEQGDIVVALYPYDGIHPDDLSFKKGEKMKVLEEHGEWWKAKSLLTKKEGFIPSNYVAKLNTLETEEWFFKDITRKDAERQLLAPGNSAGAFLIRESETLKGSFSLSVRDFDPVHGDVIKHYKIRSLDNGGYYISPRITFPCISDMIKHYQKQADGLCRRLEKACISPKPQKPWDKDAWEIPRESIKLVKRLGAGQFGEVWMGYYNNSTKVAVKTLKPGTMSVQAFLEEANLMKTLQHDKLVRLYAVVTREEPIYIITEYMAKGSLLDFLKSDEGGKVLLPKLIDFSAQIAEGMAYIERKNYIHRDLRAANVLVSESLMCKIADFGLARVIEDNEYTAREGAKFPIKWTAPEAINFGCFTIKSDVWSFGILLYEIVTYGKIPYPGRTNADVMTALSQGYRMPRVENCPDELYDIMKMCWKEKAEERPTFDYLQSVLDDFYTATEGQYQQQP

[19] = biological target: Platelet-derived growth factor receptor beta (Homo sapiens, UniProt P09619); experiment: Inhibition of PDGFRbeta (unknown origin) incubated for 5 mins prior to ATP addition measured after 60 mins by Alphascreen assay
[20] = biological target: T1, Receptor tyrosine-protein kinase erbB-2; experiment: Pseudo-irreversible inhibition of human N-terminal DYKDDDD-tagged HER2 cytoplasmic domain (676 to 1255) expressed in baculovirus expression system at 10 times IC50 preincubated for 15 mins followed by 100 fold dilution measured after 16 hrs by Alphascreen assay
[21] = biological target: Fibroblast growth factor receptor 3 (Homo sapiens, UniProt P22607); experiment: Inhibition of FGFR3 (unknown origin) incubated for 5 mins prior to ATP addition measured after 10 mins by Alphascreen assay
[22] = biological target: Serine/threonine-protein kinase B-raf (Homo sapiens, UniProt P15056); experiment: Inhibition of wild type N-terminal FLAG-tagged B-raf (unknown origin) expressed in baculovirus expression system incubated for 5 mins prior to [gamma-33P]ATP addition measured after 20 mins by scintillation counting analysis
[23] = Inhibition of PKA (unknown origin) expressed in Escherichia coli expression system incubated for 5 mins prior to [gamma-33P]ATP addition measured after 10 mins by scintillation counting analysis; design: species or system Homo sapiens
[24] = biological target: Receptor tyrosine-protein kinase erbB-4 (Homo sapiens, UniProt Q15303); experiment: Inhibition of HER4 cytoplasmic domain (unknown origin) expressed in baculovirus expression system incubated for 5 mins prior to [gamma-32P]ATP addition measured after 10 mins by scintillation counting analysis
[25] = biological target: Serine/threonine-protein kinase PLK1 (Homo sapiens, UniProt P53350); experiment: Inhibition of N-terminal FLAG-tagged PLK (unknown origin) expressed in baculovirus expression system incubated for 5 mins prior to [gamma-33P]ATP addition measured after 40 mins by scintillation counting analysis
[26] = biological target: Insulin-like growth factor 1 receptor (Homo sapiens, UniProt P08069); experiment: Inhibition of IGF1R (unknown origin) incubated for 5 mins prior to ATP addition measured after 20 mins by Alphascreen assay
[27] = biological target: Inhibitor of nuclear factor kappa-B kinase subunit beta (Homo sapiens, UniProt O14920); experiment: Inhibition of C-terminal FLAG-tagged IKKbeta (unknown origin) expressed in baculovirus expression system incubated for 5 mins prior to [gamma-33P]ATP addition measured after 5 mins by scintillation counting analysis
[28] = biological target: Insulin receptor (Homo sapiens, UniProt P06213); experiment: Inhibition of InsR (unknown origin) incubated for 5 mins prior to ATP addition measured after 60 mins by Alphascreen assay
[29] = biological target: Tyrosine-protein kinase CSK (Homo sapiens, UniProt P41240); experiment: Inhibition of CSK (unknown origin) incubated for 5 mins prior to ATP addition measured after 10 mins by Alphascreen assay
[30] = biological target: Aurora kinase B (Homo sapiens, UniProt Q96GD4); experiment: Inhibition of N-terminal His6x-tagged aurora-B (unknown origin) expressed in baculovirus expression system incubated for 5 mins prior to [gamma-33P]ATP addition measured after 60 mins by scintillation counting analysis
[31] = biological target: Mitogen-activated protein kinase kinase kinase 5 (Homo sapiens, UniProt Q99683); experiment: Inhibition of N-terminal FLAG-tagged ASK1 (unknown origin) expressed in baculovirus expression system incubated for 5 mins prior to [gamma-33P]ATP addition measured after 60 mins by scintillation counting analysis
[32] = biological target: T2, Tyrosine-protein kinase Lyn; experiment: Inhibition of LYNA (unknown origin) incubated for 5 mins prior to ATP addition measured after 10 mins by Alphascreen assay
[33] = biological target: Angiopoietin-1 receptor (Homo sapiens, UniProt Q02763); experiment: Inhibition of TIE2 (unknown origin) incubated for 5 mins prior to ATP addition measured after 10 mins by Alphascreen assay
[34] = biological target: Mitogen-activated protein kinase 8 (Homo sapiens, UniProt P45983); experiment: Inhibition of N-terminal FLAG-tagged JNK1 (unknown origin) expressed in baculovirus expression system incubated for 5 mins prior to [gamma-33P]ATP addition measured after 60 mins by scintillation counting analysis
[35] = biological target: Glycogen synthase kinase-3 beta (Homo sapiens, UniProt P49841); experiment: Inhibition of N-terminal FLAG-tagged GSK3beta (unknown origin) expressed in baculovirus expression system incubated for 5 mins prior to [gamma-33P]ATP addition measured after 30 mins by scintillation counting analysis
[36] = biological target: Dual specificity mitogen-activated protein kinase kinase 1 (Homo sapiens, UniProt Q02750); experiment: Inhibition of N-terminal GST-fused MEK1 (unknown origin) incubated for 5 mins prior to [gamma-33P]ATP addition measured after 20 mins by scintillation counting analysis
[37] = biological target: Dual specificity protein kinase TTK (Homo sapiens, UniProt P33981); experiment: Inhibition of N-terminal FLAG-tagged TTK (unknown origin) expressed in baculovirus expression system incubated for 5 mins prior to [gamma-33P]ATP addition measured after 10 mins by scintillation counting analysis

Compound: O=C(NCCO)C1=Cc2c(ncnc2Nc2ccc(Oc3cccc4sccc34)c(Cl)c2)NCC1
IC50 [4]: 3.2 µM | IC50 [5]: > 10 µM | IC50 [6]: > 10 µM | IC50 [7]: > 10 µM | IC50 [8]: > 10 µM | IC50 [9]: > 10 µM | IC50 [10]: 0.87 µM | IC50 [11]: > 10 µM | IC50 [12]: 1.7 µM | IC50 [2]: 0.024 µM | IC50 [13]: > 10 µM | IC50 [14]: 5.6 µM | IC50 [15]: > 10 µM | IC50 [16]: > 10 µM | IC50 [17]: > 10 µM | IC50 [18]: 3 µM | IC50 [19]: > 10 µM | inhibition [20]: Active | IC50 [21]: > 10 µM | IC50 [22]: 0.23 µM | IC50 [23]: > 10 µM | IC50 [24]: 0.24 µM | IC50 [25]: > 10 µM | IC50 [26]: > 10 µM | IC50 [27]: > 10 µM | IC50 [28]: > 10 µM | IC50 [29]: > 10 µM | IC50 [30]: > 10 µM | IC50 [31]: > 10 µM | IC50 [32]: 9.8 µM | GI50 [1]: 0.018 µM | IC50 [33]: > 10 µM | IC50 [34]: > 10 µM | IC50 [35]: > 10 µM | IC50 [36]: > 10 µM | IC50 [37]: > 10 µM

Compound: COC(=O)C1=Cc2c(ncnc2Nc2ccc(Oc3cccc4sccc34)c(Cl)c2)NCC1
IC50 [2]: 0.018 µM | GI50 [1]: 0.19 µM | IC50 [3]: 0.044 µM

Compound: CS(=O)(=O)CCNC(=O)C1=Cc2c(ncnc2Nc2ccc(Oc3cccc4sccc34)c(Cl)c2)NCC1
IC50 [2]: 0.03 µM | GI50 [1]: 0.025 µM | IC50 [3]: 0.047 µM

Next, values leading:

GI50 [1]: 0.017 µM
Compound: CC(C)(O)CC(=O)NCCn1ccc2ncnc(Nc3ccc(Oc4cccc(C(F)(F)F)c4)c(Cl)c3)c21 [TAK-285]

IC50 [2]: 0.1 µM | GI50 [1]: 2 µM | IC50 [3]: 0.11 µM
Compound: COC(=O)C1=Cc2c(ncnc2Nc2ccc(Oc3cccc(C(F)(F)F)c3)c(Cl)c2)NCC1

IC50 [2]: 0.065 µM | GI50 [1]: 0.62 µM | IC50 [3]: 0.075 µM
Compound: CS(=O)(=O)CCNC(=O)C1=Cc2c(ncnc2Nc2ccc(Oc3cccc(C(F)(F)F)c3)c(Cl)c2)NCC1

IC50 [2]: 0.029 µM | GI50 [1]: 0.63 µM | IC50 [3]: 0.038 µM
Compound: O=C(NCCO)C1=Cc2c(ncnc2Nc2ccc(Oc3cccc(C(F)(F)F)c3)c(Cl)c2)NCC1
